1 molecule from PubChem BioAssay AID1671204 can be followed below.

The target of the test is Tyrosine-protein kinase ABL1 (Homo sapiens) (UniProt P00519). In words: inhibition of ABL1 tyrosine kinase activity – biochemical, Z'-LYTE FRET, direct format, recombinant human, dose response (AID 1671204). The following applies: Z'-LYTE FRET kinase assay.
Chain of Tyrosine-protein kinase ABL1 (Homo sapiens) (P00519 whole entry, looked up): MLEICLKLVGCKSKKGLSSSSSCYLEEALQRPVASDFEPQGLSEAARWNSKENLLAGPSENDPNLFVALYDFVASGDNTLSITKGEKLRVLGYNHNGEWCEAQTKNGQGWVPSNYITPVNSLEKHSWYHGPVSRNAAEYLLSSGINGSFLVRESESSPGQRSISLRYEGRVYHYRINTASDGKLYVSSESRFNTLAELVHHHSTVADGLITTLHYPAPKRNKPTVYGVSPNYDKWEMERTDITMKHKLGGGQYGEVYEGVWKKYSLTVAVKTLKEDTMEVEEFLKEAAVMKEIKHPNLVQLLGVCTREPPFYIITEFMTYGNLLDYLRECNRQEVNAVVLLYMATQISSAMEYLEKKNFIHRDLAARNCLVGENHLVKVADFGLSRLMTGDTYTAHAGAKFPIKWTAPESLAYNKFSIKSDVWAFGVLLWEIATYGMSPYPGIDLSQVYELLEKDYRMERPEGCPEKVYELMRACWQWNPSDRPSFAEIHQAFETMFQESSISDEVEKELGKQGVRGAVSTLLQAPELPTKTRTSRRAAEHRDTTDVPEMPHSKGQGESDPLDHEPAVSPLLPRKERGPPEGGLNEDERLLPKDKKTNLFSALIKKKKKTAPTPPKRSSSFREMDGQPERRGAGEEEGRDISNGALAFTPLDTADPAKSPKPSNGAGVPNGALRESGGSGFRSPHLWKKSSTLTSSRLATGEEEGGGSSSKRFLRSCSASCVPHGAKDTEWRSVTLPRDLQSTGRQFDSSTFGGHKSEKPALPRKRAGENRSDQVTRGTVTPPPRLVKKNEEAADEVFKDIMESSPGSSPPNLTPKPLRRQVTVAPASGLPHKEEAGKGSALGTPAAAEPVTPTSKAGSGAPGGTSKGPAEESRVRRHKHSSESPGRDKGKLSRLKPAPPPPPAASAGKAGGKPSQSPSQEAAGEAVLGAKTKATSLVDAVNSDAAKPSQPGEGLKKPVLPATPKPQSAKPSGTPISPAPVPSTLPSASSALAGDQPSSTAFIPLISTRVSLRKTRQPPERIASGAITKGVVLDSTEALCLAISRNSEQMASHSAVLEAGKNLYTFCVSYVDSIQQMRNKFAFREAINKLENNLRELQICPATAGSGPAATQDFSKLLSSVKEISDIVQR

As for `COc1cc2ncnc(Nc3cccc(Cl)c3)c2cc1OC`, the IC50 (in general, the point on the concentration scale where inhibition reaches its midpoint) is 0.434 µM.
